# System: MV-4-11 cells
# Experiment: Gene expression microarray analysis (Affymetrix PrimeView) and GSEA
# Format: cell-based, human
# Parameters: RFU PODN (11730768_x_at) / Fold change /veh PODN (11730768_x_at) / RFU LINC00158 (11744669_a_at) / Fold change /veh LINC00158 (11744669_a_at) / RFU DUSP10 (11751237_a_at) / Fold change /veh DUSP10 (11751237_a_at) / RFU ID3 (11757404_x_at) / Fold change /veh ID3 (11757404_x_at) / RFU PLEKHG5 (11737974_s_at) / Fold change /veh PLEKHG5 (11737974_s_at) / RFU LRRC4B (11730491_at) / Fold change /veh LRRC4B (11730491_at) / RFU GIMAP4 (11747438_a_at) / Fold change /veh GIMAP4 (11747438_a_at) / RFU KRT8 (11758183_x_at) / Fold change /veh KRT8 (11758183_x_at) / RFU CNN1 (11734310_a_at) / Fold change /veh CNN1 (11734310_a_at) / RFU VPS37D (11726825_at) / Fold change /veh VPS37D (11726825_at) / RFU C10orf10 (11716522_x_at) / Fold change /veh C10orf10 (11716522_x_at) / RFU KIR2DL2 /// KIR2DL4 /// KIR2DL5A /// KIR2DL5B /// KIR2DS1 /// KIR2DS2 /// KIR2DS3 /// KIR2DS4 /// KIR3DL3 /// KIR3DL3 /// KIR3DS1 (11738374_at) / Fold change /veh KIR2DL2 /// KIR2DL4 /// KIR2DL5A /// KIR2DL5B /// KIR2DS1 /// KIR2DS2 /// KIR2DS3 /// KIR2DS4 /// KIR3DL3 /// KIR3DL3 /// KIR3DS1 (11738374_at) / RFU C1QL1 (11718748_at) / Fold change /veh C1QL1 (11718748_at) / RFU TMPRSS4 (11747572_a_at) / Fold change /veh TMPRSS4 (11747572_a_at) / RFU HAMP (11756126_x_at) / Fold change /veh HAMP (11756126_x_at) / RFU RNFT2 (11725882_a_at) / Fold change /veh RNFT2 (11725882_a_at) / RFU NR4A2 (11747474_a_at) / Fold change /veh NR4A2 (11747474_a_at) / RFU ABCC12 (11746883_a_at) / Fold change /veh ABCC12 (11746883_a_at) / RFU TMEM136 (11760407_x_at) / Fold change /veh TMEM136 (11760407_x_at) / RFU CLDN22 /// WWC2 (11732394_at) / Fold change /veh CLDN22 /// WWC2 (11732394_at) / RFU HLA-DPB1 (11760878_x_at) / Fold change /veh HLA-DPB1 (11760878_x_at) / RFU SPINT1 (11716480_a_at) / Fold change /veh SPINT1 (11716480_a_at) / RFU GAP43 (11754022_s_at) / Fold change /veh GAP43 (11754022_s_at) / RFU A4GNT (11735810_at) / Fold change /veh A4GNT (11735810_at) / RFU PRB3 (11715151_x_at) / Fold change /veh PRB3 (11715151_x_at) / RFU TUBB4B (11761932_at) / Fold change /veh TUBB4B (11761932_at) / RFU CAPN14 (11732068_a_at) / Fold change /veh CAPN14 (11732068_a_at) / RFU TMCC2 (11721928_a_at) / Fold change /veh TMCC2 (11721928_a_at) / RFU IRGQ (11745062_a_at) / Fold change /veh IRGQ (11745062_a_at) / RFU FAM174B (11720279_a_at) / Fold change /veh FAM174B (11720279_a_at) / RFU TMPRSS4 (11748680_a_at) / Fold change /veh TMPRSS4 (11748680_a_at) / RFU FAM212B (11763350_a_at) / Fold change /veh FAM212B (11763350_a_at) / RFU PLEKHG5 (11743358_a_at) / Fold change /veh PLEKHG5 (11743358_a_at) / RFU ZSCAN30 (11745921_a_at) / Fold change /veh ZSCAN30 (11745921_a_at) / RFU CMKLR1 (11741424_a_at) / Fold change /veh CMKLR1 (11741424_a_at) / RFU LOC101060620 /// MAPK8IP1 (11723275_at) / Fold change /veh LOC101060620 /// MAPK8IP1 (11723275_at) / RFU SPTSSB (11747773_x_at) / Fold change /veh SPTSSB (11747773_x_at) / RFU PRSS12 (11739890_at) / Fold change /veh PRSS12 (11739890_at) / RFU BIN1 (11741810_x_at) / Fold change /veh BIN1 (11741810_x_at) / RFU WNT11 (11732464_a_at) / Fold change /veh WNT11 (11732464_a_at) / RFU C10orf10 (11716521_a_at) / Fold change /veh C10orf10 (11716521_a_at) / RFU C5orf56 (11738089_at) / Fold change /veh C5orf56 (11738089_at) / RFU CYB561 (11721691_x_at) / Fold change /veh CYB561 (11721691_x_at) / RFU ANKRD19P (11752326_a_at) / Fold change /veh ANKRD19P (11752326_a_at) / RFU OR2T12 /// OR2T33 /// OR2T8 (11738714_s_at) / Fold change /veh OR2T12 /// OR2T33 /// OR2T8 (11738714_s_at) / RFU VCAN (11748164_a_at) / Fold change /veh VCAN (11748164_a_at) / RFU JSRP1 (11732532_at) / Fold change /veh JSRP1 (11732532_at) / RFU KRTAP10-11 (11738290_x_at) / Fold change /veh KRTAP10-11 (11738290_x_at) / RFU MYO3A (11730013_a_at) / Fold change /veh MYO3A (11730013_a_at) / RFU EBF3 (11725865_a_at) / Fold change /veh EBF3 (11725865_a_at) / RFU CAMK2N1 (11719241_x_at) / Fold change /veh CAMK2N1 (11719241_x_at) / RFU C5orf56 (11738088_a_at) / Fold change /veh C5orf56 (11738088_a_at) / RFU OLFML3 (11715873_a_at) / Fold change /veh OLFML3 (11715873_a_at) / RFU LOC100653217 /// NTM (11731650_a_at) / Fold change /veh LOC100653217 /// NTM (11731650_a_at) / RFU MAPK11 (11762145_a_at) / Fold change /veh MAPK11 (11762145_a_at) / RFU FIZ1 (11724087_x_at) / Fold change /veh FIZ1 (11724087_x_at) / RFU OASL (11726364_x_at) / Fold change /veh OASL (11726364_x_at) / RFU SOX15 (11748057_x_at) / Fold change /veh SOX15 (11748057_x_at) / RFU CD79A (11719716_a_at) / Fold change /veh CD79A (11719716_a_at) / RFU HIST1H1D (11736915_at) / Fold change /veh HIST1H1D (11736915_at) / RFU CASKIN2 (11723855_a_at) / Fold change /veh CASKIN2 (11723855_a_at) / RFU LOC730098 (11760151_x_at) / Fold change /veh LOC730098 (11760151_x_at) / RFU OR4N2 (11742367_at) / Fold change /veh OR4N2 (11742367_at) / RFU PRRT2 (11749266_a_at) / Fold change /veh PRRT2 (11749266_a_at) / RFU SNX32 (11753110_a_at) / Fold change /veh SNX32 (11753110_a_at) / RFU CDHR5 (11726645_a_at) / Fold change /veh CDHR5 (11726645_a_at) / RFU RCAN1 (11760418_a_at) / Fold change /veh RCAN1 (11760418_a_at) / RFU FAM167A (11723789_a_at) / Fold change /veh FAM167A (11723789_a_at) / RFU FAM26E (11764081_at) / Fold change /veh FAM26E (11764081_at) / RFU ISYNA1 (11749810_s_at) / Fold change /veh ISYNA1 (11749810_s_at) / RFU ACY1 (11761880_at) / Fold change /veh ACY1 (11761880_at) / RFU 11764098_at / Fold change /veh 11764098_at / RFU SAMD14 (11745864_x_at) / Fold change /veh SAMD14 (11745864_x_at) / RFU NPB (11741838_a_at) / Fold change /veh NPB (11741838_a_at) / RFU TMPRSS6 (11731388_a_at) / Fold change /veh TMPRSS6 (11731388_a_at) / RFU KRTAP10-2 (11738614_at) / Fold change /veh KRTAP10-2 (11738614_at) / RFU ARHGAP8 /// PRR5-ARHGAP8 (11727945_x_at) / Fold change /veh ARHGAP8 /// PRR5-ARHGAP8 (11727945_x_at) / RFU KRTAP5-7 /// NADSYN1 (11734609_at) / Fold change /veh KRTAP5-7 /// NADSYN1 (11734609_at) / RFU RASL12 (11751679_a_at) / Fold change /veh RASL12 (11751679_a_at) / RFU CDKN2B (11736163_a_at) / Fold change /veh CDKN2B (11736163_a_at) / RFU PRF1 (11729649_at) / Fold change /veh PRF1 (11729649_at) / RFU, ZNF638 /// ZNF638-IT1 / Fold change vs veh, ZNF638 /// ZNF638-IT1 / RFU, PANK3 / Fold change vs veh, PANK3 / RFU, SH3YL1 / Fold change vs veh, SH3YL1 / RFU, ZEB2 / Fold change vs veh, ZEB2 / RFU, NRIP1 / Fold change vs veh, NRIP1 / RFU, PTTG1IP / Fold change vs veh, PTTG1IP / RFU, CAPN2 / Fold change vs veh, CAPN2 / RFU, MED14 / Fold change vs veh, MED14 / RFU, SNORA58 / Fold change vs veh, SNORA58 / RFU, C1orf63 / Fold change vs veh, C1orf63 / RFU, LRRFIP1 / Fold change vs veh, LRRFIP1 / RFU, NDUFAF7 / Fold change vs veh, NDUFAF7 / RFU, SLC12A2 / Fold change vs veh, SLC12A2 / RFU, IBTK / Fold change vs veh, IBTK / RFU, ESF1 / Fold change vs veh, ESF1 / Fold change vs veh, TMEM50B / RFU, TAOK1 / Fold change vs veh, TAOK1 / RFU, ACBD3 / Fold change vs veh, ACBD3 / RFU, TMA16 / Fold change vs veh, TMA16 / RFU, RWDD3 / Fold change vs veh, RWDD3 / RFU, BCAT1 / Fold change vs veh, BCAT1 / RFU, EDEM3 / Fold change vs veh, EDEM3 / RFU, TMEM33 / Fold change vs veh, TMEM33 / RFU, WDR75 / Fold change vs veh, WDR75 / RFU, AHCTF1 / Fold change vs veh, AHCTF1 / RFU, TFRC / Fold change vs veh, TFRC / RFU, ZDHHC17 / Fold change vs veh, ZDHHC17 / RFU, NOM1 / Fold change vs veh, NOM1 / RFU, ARL8B / Fold change vs veh, ARL8B / RFU, ZBTB11 / Fold change vs veh, ZBTB11 / RFU, TAMM41 / Fold change vs veh, TAMM41 / RFU, KIAA1704 /// LOC100996395 / Fold change vs veh, KIAA1704 /// LOC100996395 / RFU, ING1 / Fold change vs veh, ING1 / RFU, TRMT61B / Fold change vs veh, TRMT61B / RFU, FUBP3 / Fold change vs veh, FUBP3 / RFU, TP53 / Fold change vs veh, TP53 / RFU, TNKS2 / Fold change vs veh, TNKS2 / RFU, ZFP14 / Fold change vs veh, ZFP14 / RFU, ACTR2 / Fold change vs veh, ACTR2 / RFU, PPP3R1 / Fold change vs veh, PPP3R1 / RFU, PIK3R1 / Fold change vs veh, PIK3R1 / RFU, HNRNPA1 / Fold change vs veh, HNRNPA1 / RFU, RNF170 / Fold change vs veh, RNF170 / RFU, ZNF28 / Fold change vs veh, ZNF28 / RFU, RNGTT / Fold change vs veh, RNGTT / RFU, OGT / Fold change vs veh, OGT / RFU, BRD1 / Fold change vs veh, BRD1 / RFU, MARS / Fold change vs veh, MARS / RFU, ZNF655 / Fold change vs veh, ZNF655 / RFU, FAHD1 / Fold change vs veh, FAHD1 / RFU, BDP1 / Fold change vs veh, BDP1 / RFU, LRRCC1 / Fold change vs veh, LRRCC1 / RFU, ARID1A / Fold change vs veh, ARID1A / RFU, ZNF146 / Fold change vs veh, ZNF146 / RFU, ZNF330 / Fold change vs veh, ZNF330 / RFU, GPN3 / Fold change vs veh, GPN3 / RFU, C9orf123 / Fold change vs veh, C9orf123 / RFU, N4BP2L2 / Fold change vs veh, N4BP2L2 / RFU, ARFIP1 / Fold change vs veh, ARFIP1 / RFU, FAM179B / Fold change vs veh, FAM179B / RFU, BCL10 / Fold change vs veh, BCL10 / RFU, UHRF1BP1L / Fold change vs veh, UHRF1BP1L / RFU, BET1 / Fold change vs veh, BET1 / RFU, CNOT2 / Fold change vs veh, CNOT2 / RFU, ZNF268 / Fold change vs veh, ZNF268 / Fold change vs veh, ZNF507 / RFU, DGCR2 / Fold change vs veh, DGCR2 / RFU, WDSUB1 / Fold change vs veh, WDSUB1 / Fold change vs veh, HSP90B1 /// MIR3652 / RFU, ADSS / Fold change vs veh, ADSS / RFU, GK / Fold change vs veh, GK / RFU, ZNF148 / Fold change vs veh, ZNF148 / RFU, TAF9 / Fold change vs veh, TAF9 / RFU, SLC1A5 / Fold change vs veh, SLC1A5 / RFU, SLMO2 / Fold change vs veh, SLMO2 / RFU, ABCC4 / Fold change vs veh, ABCC4 / RFU, LOC101060439 /// RAP1B / Fold change vs veh, LOC101060439 /// RAP1B / RFU, RFX7 / Fold change vs veh, RFX7 / RFU, GTPBP10 / Fold change vs veh, GTPBP10 / RFU, CNEP1R1 / Fold change vs veh, CNEP1R1 / RFU, BIVM-ERCC5 /// ERCC5 / Fold change vs veh, BIVM-ERCC5 /// ERCC5 / RFU, ILF3 / Fold change vs veh, ILF3 / RFU 11762660_at / Fold change /veh 11762660_at / RFU VCAN (11757783_s_at) / Fold change /veh VCAN (11757783_s_at) / RFU DDX43 (11728927_at) / Fold change /veh DDX43 (11728927_at) / RFU KRT8 (11758188_x_at) / Fold change /veh KRT8 (11758188_x_at) / RFU NKD1 (11759106_at) / Fold change /veh NKD1 (11759106_at) / RFU SRD5A1 (11742802_a_at) / Fold change /veh SRD5A1 (11742802_a_at) / RFU TPSAB1 /// TPSB2 (11721975_s_at) / Fold change /veh TPSAB1 /// TPSB2 (11721975_s_at) / RFU GSTM3 (11746129_a_at) / Fold change /veh GSTM3 (11746129_a_at) / RFU IL23R (11737362_x_at) / Fold change /veh IL23R (11737362_x_at) / RFU TMEM51 (11727254_a_at) / Fold change /veh TMEM51 (11727254_a_at) / RFU PIWIL2 (11732686_x_at) / Fold change /veh PIWIL2 (11732686_x_at) / RFU ORM1 (11744905_x_at) / Fold change /veh ORM1 (11744905_x_at) / RFU CCDC152 (11743942_at) / Fold change /veh CCDC152 (11743942_at) / RFU ECM1 (11717891_a_at) / Fold change /veh ECM1 (11717891_a_at) / RFU IL23R (11748794_a_at) / Fold change /veh IL23R (11748794_a_at) / RFU TNFAIP8L3 (11732012_x_at) / Fold change /veh TNFAIP8L3 (11732012_x_at) / RFU MBOAT4 (11741988_at) / Fold change /veh MBOAT4 (11741988_at) / RFU 11764193_at / Fold change /veh 11764193_at / RFU TMEM53 (11763286_at) / Fold change /veh TMEM53 (11763286_at) / RFU MAGEB2 (11727129_at) / Fold change /veh MAGEB2 (11727129_at) / RFU TMEM200A (11744735_a_at) / Fold change /veh TMEM200A (11744735_a_at) / RFU CCDC152 (11751479_a_at) / Fold change /veh CCDC152 (11751479_a_at) / RFU FAM211A (11726209_a_at) / Fold change /veh FAM211A (11726209_a_at) / RFU RGS16 (11746705_a_at) / Fold change /veh RGS16 (11746705_a_at) / RFU VCAN (11755009_s_at) / Fold change /veh VCAN (11755009_s_at) / RFU RHOB (11743442_s_at) / Fold change /veh RHOB (11743442_s_at) / RFU RGS16 (11720943_a_at) / Fold change /veh RGS16 (11720943_a_at) / RFU RGS16 (11720944_at) / Fold change /veh RGS16 (11720944_at) / RFU, VPS4B / Fold change vs veh, VPS4B / RFU, CREB1 / Fold change vs veh, CREB1 / RFU, DNAJC13 / Fold change vs veh, DNAJC13 / RFU, GNAQ / Fold change vs veh, GNAQ / RFU, CDK5R1 / Fold change vs veh, CDK5R1 / RFU, ZRANB3 / Fold change vs veh, ZRANB3 / RFU, CUL4A / Fold change vs veh, CUL4A / RFU, CCNY / Fold change vs veh, CCNY / RFU, UFL1 / Fold change vs veh, UFL1 / RFU, COG3 / Fold change vs veh, COG3 / RFU, DIAPH2 / Fold change vs veh, DIAPH2 / RFU, SKA2 / Fold change vs veh, SKA2 / RFU, AFF3 / Fold change vs veh, AFF3 / RFU, LMF1 / Fold change vs veh, LMF1 / RFU, IPO11 / Fold change vs veh, IPO11 / RFU, DFFB / Fold change vs veh, DFFB / RFU, FOXP1 / Fold change vs veh, FOXP1 / RFU, CARD8 / Fold change vs veh, CARD8 / RFU, STRN3 / Fold change vs veh, STRN3 / RFU, ADK / Fold change vs veh, ADK / RFU, RASSF2 / Fold change vs veh, RASSF2 / RFU, WIPF1 / Fold change vs veh, WIPF1 / RFU, LARP1B / Fold change vs veh, LARP1B / RFU, RASA1 / Fold change vs veh, RASA1 / RFU, RB1 / Fold change vs veh, RB1 / RFU, PPFIA1 / Fold change vs veh, PPFIA1 / RFU, MAT2A / Fold change vs veh, MAT2A / RFU, CCT5 / Fold change vs veh, CCT5 / RFU, WDR92 / Fold change vs veh, WDR92 / RFU, CUX1 / Fold change vs veh, CUX1 / RFU, TTC7A / Fold change vs veh, TTC7A / RFU, TMEM135 / Fold change vs veh, TMEM135 / RFU, DEPTOR / Fold change vs veh, DEPTOR / RFU, CPM / Fold change vs veh, CPM / RFU, DNAJB6 / Fold change vs veh, DNAJB6 / RFU, CACNA2D3 / Fold change vs veh, CACNA2D3 / RFU, DTX4 / Fold change vs veh, DTX4 / RFU, TFCP2 / Fold change vs veh, TFCP2 / RFU, GMCL1 /// GMCL1P1 / Fold change vs veh, GMCL1 /// GMCL1P1 / RFU, AEBP2 / Fold change vs veh, AEBP2 / RFU, SNHG1 /// SNORD22 /// SNORD25 /// SNORD26 /// SNORD27 /// SNORD28 /// SNORD29 /// SNORD31 / Fold change vs veh, SNHG1 /// SNORD22 /// SNORD25 /// SNORD26 /// SNORD27 /// SNORD28 /// SNORD29 /// SNORD31 / Fold change (Aza/veh), C12orf56 (ProbeSet 11735607_a_at) / Fold change (ACY-1035/veh), C12orf56 (ProbeSet 11735607_a_at) / Fold change (Aza/veh), FGFR1OP (ProbeSet 11751329_s_at) / Fold change (ACY-1035/veh), FGFR1OP (ProbeSet 11751329_s_at) / Fold change (Aza/veh), VPS36 (ProbeSet 11739960_a_at) / Fold change (ACY-1035/veh), VPS36 (ProbeSet 11739960_a_at) / RFU SYPL1 (11715823_x_at) / Fold change /veh SYPL1 (11715823_x_at) / RFU IGFBP7 (11715501_s_at) / Fold change /veh IGFBP7 (11715501_s_at) / RFU REEP3 (11722064_at) / Fold change /veh REEP3 (11722064_at) / RFU IGLL1 (11728026_x_at) / Fold change /veh IGLL1 (11728026_x_at): dose or concentration left out as unconfirmed
# Settings: MV-4-11 cells, 48 hours
structure (smiles),measurement,value
Nc1ccc(-c2cccs2)cc1NC(=O)c1ccc2c(c1)cc(C1CC1)n2CCN1CCOCC1 [ACY-1035],Fold change /veh RGS16 (11720944_at),0.97
